Experiments:
Type in all cases: in vivo
[1] = Human plasma samples from clinical trials dosing with the compound of formula (S)
From the text: and pharmaceutically acceptable salts thereof.
(§1) The compound of formula (A) was initially isolated from human plasma samples from clinical trials dosing with the compound of formula (S). Additionally, the compound of formula (A) is a pro-drug of the compound of formula (S).

[2] = test system: CF-1 male albino mice; assay: Maximal Electroshock Test (MES), anticonvulsant activity
Description: Anticonvulsant activity was determined using the MES test, run according to the procedure described in detail below. Swinyard E A, Woodhead J H, White H S, Franklin M R. Experimental selection, quantification, and evaluation of anticonvulsants. In Levy R H, et al., eds. Antiepileptic Drugs. 3rd ed. New York: Raven Press, 1989:85-102.
CF-1 male albino mice (25-35 g) were fasted for 16 hours before testing. Mice were randomly selected into control and test groups, with the animals dosed with vehicle or test compound, at varying concentrations, respectively. […] Seizures were induced by trans-corneal electric shock using a 60-Hz alternating current, 50 mA, delivered for 0.2 sec. […] […] The test was complete when the entire course of the convulsion has been observed (typically, less than 1 minute after electrical stimulation), and the mice were then immediately euthanized by carbon dioxide inhalation.
Abolition of the full body tonic extensor component of the seizure was taken as the endpoint of the test. […] The ED50 value of the test compound (calculated when appropriate) was the calculated dose required to block the hind limb tonic-extensor component of the MES-induced seizure in 50% of the rodents tested. A probit analysis was used to calculate the ED50 and 95% fiducial limits (FL).
Results are listed as (number of mice with full body tonic extension prevented)/(total number of mice tested) (@ a given time).

[3] = Mice studies dosing with the compound of formula (A): plasma and brain analyses; conditions: mice dosed with the compound of formula (A)
From the text: as §1

Compound	metabolite found in human plasma [1]	MES Activity, (number of mice with full body tonic extension prevented)/(total number of mice tested) ([2]; 150 mg/kg po, 3 Hrs)	MES Activity, (number of mice with full body tonic extension prevented)/(total number of mice tested) ([2]; 200 mg/kg po, 0.50 Hrs)	MES Activity, (number of mice with full body tonic extension prevented)/(total number of mice tested) ([2]; 200 mg/kg po, 1.0 Hrs)	MES Activity, (number of mice with full body tonic extension prevented)/(total number of mice tested) ([2]; 200 mg/kg po, 2 Hrs)	MES Activity, (number of mice with full body tonic extension prevented)/(total number of mice tested) ([2]; 200 mg/kg po, 3 Hrs)	MES Activity, (number of mice with full body tonic extension prevented)/(total number of mice tested) ([2]; 200 mg/kg po, 6 Hrs)	plasma and brain levels of compound (A) and compound (S) after dosing (pro-drug conversion) [3]
NS(=O)(=O)NC[C@H]1COc2cc(Cl)ccc2O1 [Compound (S), (2S)-(−)-N-(6-chloro-2,3-dihydro-benzo[1,4]dioxin-2-ylmethyl)-sulfamide, reference compound]	The compound of formula (A) is a human metabolite of the compound of formula (S)	5/5	–	–	–	–	–	–
CC(=O)NS(=O)(=O)NC[C@H]1COc2cc(Cl)ccc2O1 [Compound (A), (2S)-(−)-N′-acetyl-N-(6-chloro-2,3-dihydro-benzo[1,4]dioxin-2-ylmethyl)-sulfamide]	–	–	0/5	1/5	4/5	5/5	2/5	levels of the compound of formula (S) higher than those of the compound of formula (A)
